Results taken from US20050002904A1, “Uses of vascular endothelial growth factor and type I collagen inducible protein (VCIP)” (priority 2003, published 2005).
Where no end group is shown, it is not given here.

Key:
WT and MT HEK293 cells = assay: Cell aggregation assay, mixed dye-labelled WT and MT cells; assay type: cell-based; details: WT mixed with MT cells; 12 h
Description: FIGS. 9A-F show VCIP mediates heterophilic cell-cell interactions. Magnification, 200×. Bar, […]. *, P<0.05. The images of cell aggregates appear out of focus. FIG. 9A: Representative photomicrograph of a mixture of WT and MT cells labeled with red (Dil) and green (DiO) fluorescent dyes at 0 h. FIG. 9B: Small and large cell-aggregates were visible after 6 h; green arrowheads indicate the most productive cell aggregation (yellow). FIG. 9C: Representative large cell aggregates are shown after 12 h. FIG. 9D: Cells co-incubated with the GRGDSP peptide for 12 h. FIG. 9E: Cells co-incubated with anti-VCIP-RGD antibody (25 μg/ml) after 12 h. All experiments were performed at least three times in triplicates.
To monitor aggregation, cells were labeled with optimal non-toxic concentrations of fluorescent dyes. This assay was performed essentially according to the protocol described by Niessen and Gumbiner (2002), with minor modifications. […] The inhibitory effects of EDTA, peptides and antibodies on cell aggregation were determined at the end of 12 h. […] Experiments were performed at least three times with each time point analyzed in triplicate. Only productive cell aggregates (yellow) were counted. […] Numbers were expressed as the percentage of total aggregates counted. […]

[1] = system: SW480 cells on monolayer HUVECs; assay: Adhesion of SW480 cells to HUVEC monolayer; assay type: cell-based, human; details: pre-incubation; GRGDSP 10, 20 μM; antibody 20, 40 μg/ml; 1 hr
Description: FIGS. 7A-O show the effects of VCIP on adhesion of cadherin-deficient SW480 cells to HUVECs monolayer. SW480-C, SW480-WT, and SW480-MT cells were non-enzymatically detached from dishes, washed, passed through a cell strainer, counted, and labeled with a fluorescent dye (red) prior to experiments. HUVECs were seeded onto 12-well dishes in complete media and allowed to form a 100% confluent monolayer on the day of assay. Monolayer HUVECs were washed once each with PBS and HCMF, and then preincubated in HCMF supplemented with Ca^2+/Mg^2+ for 10 min at 37° C. SW480 cells (0.25×10^6) were finely resuspendend in 500 μl of HCMF buffer supplemented with Ca^2+/Mg^2+, layered onto the monolayer, and allowed to attach at 37° C. for 1 hr. Unattached cells were removed by washing with PBS and adherent cells were fixed with 4% paraformaldehyde. The number of cells adhered to the monolayer were determined using a phase-contrast microscope. Experiments were performed at least three times in triplicates, with three independent clones. […] In each experiment, the relative percentage of cell adhesion was calculated and presented as mean±SD. […] Data are expressed as mean±S.D. (n≧7), *P<0.05. […]

α2β1 integrin = α2β1 integrin (Homo sapiens, UniProt P05556+P17301); assay: Solid phase ligand binding assay (ELISA); details: immobilized integrin, GST-fusion ligand in solution
Description: (§1) FIG. 10A: Affinity purified GST-fusion proteins were resolved on SDS±PAGE and stained with Coomassie Blue. FIG. 10B: Integrins were immobilized onto 96-well plates, and various GST-fusion proteins (ligands) were allowed to bind. Bound ligands were incubated with anti-GST antibodies, appropriate substrate added and the color intensity measured. OD values <0.05 were considered to be background binding. Data are expressed as mean±SD (n=4). FIG. 10C: Dose-dependent binding of αvβ3 integrin with recombinant GST-VCIP-RGD. FIGS. 10D-F: Representative photomicrographs of adhesion and spreading of endothelial cells replated onto dishes coated with either […]. Cells were allowed to attach for 45 min, washed with PBS and stained with H&E. Magnification, 100×. Bar, 25 μm. FIG. 10G: Adhesion blocking assays. Endothelial cells were replated onto dishes coated with increasing concentrations of affinity purified fusion proteins (1, 5 and 10 nM). Attached cells were stained, washed and absorbances of eluted dyes measured. To determine the effects of anti-integrin antibodies, dishes were coated with 10 nM GST-VCIP-RGD. Endothelial cells were pre-incubated at 4° C. with increasing concentrations of anti-α5β1 (P1D6), anti-αvβ3 (LM609), anti-α2β1 (MAB 1998) and anti-α3β1 (P1B5) monoclonal antibodies (1, 5 and 10 μg/ml) for 30 min, then washed and replated onto coated dishes. Attached cells were stained, washed and absorbances of eluted dyes determined. Three independent experiments were performed with several replicate samples in each experiment. Data are expressed as mean±S.D.; diamond, P<0.01; asterisk, P<0.001. FIG. 10H: Clarified extracts prepared from [^35S]Cys/Met-labeled HdMVEC were pre-adsorbed and incubated with GST-VCIP-RGD in the absence (−) or presence (+) of GRGDSP peptide (lanes 1 and 2). The presence of αvβ3 and α5β1 integrins (lanes 5 and 6) in GST-VCIP pull-down complex (lane 1) was confirmed by incubating aliquots of dissociated complex with the indicated antibodies. Anti-mouse IgG was included as negative control (lane 3).
(§2) Solid phase ligand binding assays were performed according to a previously published procedure (Orlando and Cheresh, 1991). Briefly, soluble α2β1, α5β1, αvβv3 and αvβ5 integrins (1 μg/ml in a solution containing 20 mM Tris pH 7.4, 150 mM NaCl, 1 mM CaCl2, 1 mM MgCl2 and 1 mM MnCl2) were immobilized onto 96-well microtiter plates at 4° C. Wells were washed and blocked with 0.5% BSA. After washing, GST, GST-VCIP-RGD and GST-VCIP-RGE ligands were added (50-350 ng per well in a solution of TBS pH 7.4) and incubated at 37° C. for 1 h. After washing, the wells were incubated with the anti-GST (sc-138, Santa Cruz) monoclonal antibody for 1 h, followed by washing and incubation with a horseradish peroxidase (HRP)-conjugated mouse secondary antibody. Plates were then washed again and the ABTS substrate (Bio-Rad) was added. All washing steps were carried out using PBS. Absorbances were read at 405 nm, and non-specific binding values were adjusted against BSA.
(§3) To determine whether GST-VCIP-RGD could interact with various integrins, a solid-phase ligand binding assay was performed.

α5β1 integrin = α5β1 integrin (Homo sapiens, UniProt P05556+P08648); assay: Solid phase ligand binding assay (ELISA); details: immobilized integrin, GST-fusion ligand in solution
Description: as §1, §2, §3

αvβ5 integrin = αvβ5 integrin (Homo sapiens, UniProt P06756+P18084); assay: Solid phase ligand binding assay (ELISA); details: immobilized integrin, GST-fusion ligand in solution
Description: as §1, §2, §3

αvβ3 integrin = αvβ3 integrin (Homo sapiens, UniProt P05106+P06756); assay: Solid phase ligand binding assay (ELISA)
Description: as §1, §2, §3

[2] = system: Fak, Cas, Shc and paxillin; assay: Tyrosine phosphorylation of focal adhesion proteins in replated HUVECs; assay type: cell-based, human; details: HUVECs replated on coated dishes, 30 and 60 min
Description: Dishes were coated with either fibronectin (Fn, 10 μg/ml), vitronectin (Vn, 10 μg/ml) or affinity purified GST-VCIP-RGD or -RGE fusion proteins (10 and 20 nM). Endothelial cells were detached, washed and maintained in suspension (Sus) for 30 min, then allowed to re-attach for 30 or 60 min. Adherent cells were solubilized in RIPA buffer. Blots shown are representative of those obtained in at least three separate experiments. FIGS. 11A-E: Equal amounts of protein (˜1.0 mg) from clarified extracts were subjected to immunoprecipitation (IP) followed by immunoblotting using the indicated antibodies. FIG. 11F: Equal amounts of protein from total lysates (35 μg/lane) were subjected to immunoblotting with the anti-phospho-Erk½ antibody. FIG. 11G: The same membrane was stripped and re-probed with an anti-Erk½ antibody, showing that equivalent amounts of proteins used across the lanes.
Serum- and growth factor-starved HUVECs were allowed to attach and spread on dishes coated with optimal concentrations of fibronectin, vitronectin, GST-RGD-VCIP and GST-VCIP-RGE. Cells were harvested after 30 and 60 min at 37° C. Cells were then solubilized, clarified, pre-adsorbed, immunoprecipitated and subjected to immunoblotting with various antibodies as shown in FIG. 11. […] Cells that were replated onto GST-VCIP-RGE appeared rounded.

αvβ3 and α5β1 integrins = assay: GST pull-down from [35S]Cys/Met-labelled endothelial cell lysates; assay type: binding, human; details: 10 μg per 3 mg lysate
endothelial cells = assay: Adhesion of endothelial cells to wells coated with GST fusion proteins; assay type: cell-based, human; details: coating 1, 5, 10 nM; 45 min
Description: FIG. 10A: Affinity purified GST-fusion proteins were resolved on SDS±PAGE and stained with Coomassie Blue. FIG. 10B: Integrins were immobilized onto 96-well plates, and various GST-fusion proteins (ligands) were allowed to bind. Bound ligands were incubated with anti-GST antibodies, appropriate substrate added and the color intensity measured. OD values <0.05 were considered to be background binding. Data are expressed as mean±SD (n=4). FIG. 10C: Dose-dependent binding of αvβ3 integrin with recombinant GST-VCIP-RGD. FIGS. 10D-F: Representative photomicrographs of adhesion and spreading of endothelial cells replated onto dishes coated with either fibronectin (FIG. 9D), vitronectin (FIG. 9E) or GST-VCIP-RGD (FIG. 9F). […] Attached cells were stained, washed and absorbances of eluted dyes measured. […] Attached cells were stained, washed and absorbances of eluted dyes determined. […] Data are expressed as mean±S.D.; diamond, P<0.01; asterisk, P<0.001. […]
For adhesion blocking assays, endothelial cells were detached, washed with PBS and resuspended in M199 media containing 1 mM CaCl2 and 1 mM MgCl2 in the absence of serum or growth factors. […] Absorbances were measured at 540 nm.
Next, the capacity of VCIP-RGD to bind endothelial cell integrins was evaluated by determining the effect of GST-VCIP fusion proteins on cell adhesion and spreading.

Chain of αvβ3 integrin (P06756 31-889 limits assumed): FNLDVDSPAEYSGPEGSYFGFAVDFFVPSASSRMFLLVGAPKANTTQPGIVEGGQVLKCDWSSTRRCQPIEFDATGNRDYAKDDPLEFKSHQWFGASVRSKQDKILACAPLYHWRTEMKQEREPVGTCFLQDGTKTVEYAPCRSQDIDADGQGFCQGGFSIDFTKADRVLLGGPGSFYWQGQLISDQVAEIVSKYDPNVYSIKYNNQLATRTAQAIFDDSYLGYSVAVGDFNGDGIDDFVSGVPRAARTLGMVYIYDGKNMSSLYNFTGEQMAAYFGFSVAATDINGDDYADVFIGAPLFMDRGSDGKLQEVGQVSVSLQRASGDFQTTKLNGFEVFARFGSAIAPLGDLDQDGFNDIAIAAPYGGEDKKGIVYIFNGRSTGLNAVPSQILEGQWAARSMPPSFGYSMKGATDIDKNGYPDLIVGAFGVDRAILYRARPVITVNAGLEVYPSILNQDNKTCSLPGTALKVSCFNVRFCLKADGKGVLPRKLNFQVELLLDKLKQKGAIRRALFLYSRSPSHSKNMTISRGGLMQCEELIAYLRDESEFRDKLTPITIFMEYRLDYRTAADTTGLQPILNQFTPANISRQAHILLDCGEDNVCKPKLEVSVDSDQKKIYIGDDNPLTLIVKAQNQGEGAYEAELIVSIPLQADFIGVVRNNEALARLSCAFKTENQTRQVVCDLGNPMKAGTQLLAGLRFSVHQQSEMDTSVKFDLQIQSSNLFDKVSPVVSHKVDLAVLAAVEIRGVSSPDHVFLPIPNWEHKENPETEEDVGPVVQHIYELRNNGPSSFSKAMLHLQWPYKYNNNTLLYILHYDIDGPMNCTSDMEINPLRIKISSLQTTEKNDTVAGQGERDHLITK
Chain of αvβ3 integrin (P06756 891-1048 limits assumed): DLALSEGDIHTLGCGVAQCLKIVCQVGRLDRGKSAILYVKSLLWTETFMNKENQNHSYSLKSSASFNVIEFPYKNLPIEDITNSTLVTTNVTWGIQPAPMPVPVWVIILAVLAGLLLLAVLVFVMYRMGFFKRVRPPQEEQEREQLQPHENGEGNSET
Chain of αvβ3 integrin (P05106 27-788): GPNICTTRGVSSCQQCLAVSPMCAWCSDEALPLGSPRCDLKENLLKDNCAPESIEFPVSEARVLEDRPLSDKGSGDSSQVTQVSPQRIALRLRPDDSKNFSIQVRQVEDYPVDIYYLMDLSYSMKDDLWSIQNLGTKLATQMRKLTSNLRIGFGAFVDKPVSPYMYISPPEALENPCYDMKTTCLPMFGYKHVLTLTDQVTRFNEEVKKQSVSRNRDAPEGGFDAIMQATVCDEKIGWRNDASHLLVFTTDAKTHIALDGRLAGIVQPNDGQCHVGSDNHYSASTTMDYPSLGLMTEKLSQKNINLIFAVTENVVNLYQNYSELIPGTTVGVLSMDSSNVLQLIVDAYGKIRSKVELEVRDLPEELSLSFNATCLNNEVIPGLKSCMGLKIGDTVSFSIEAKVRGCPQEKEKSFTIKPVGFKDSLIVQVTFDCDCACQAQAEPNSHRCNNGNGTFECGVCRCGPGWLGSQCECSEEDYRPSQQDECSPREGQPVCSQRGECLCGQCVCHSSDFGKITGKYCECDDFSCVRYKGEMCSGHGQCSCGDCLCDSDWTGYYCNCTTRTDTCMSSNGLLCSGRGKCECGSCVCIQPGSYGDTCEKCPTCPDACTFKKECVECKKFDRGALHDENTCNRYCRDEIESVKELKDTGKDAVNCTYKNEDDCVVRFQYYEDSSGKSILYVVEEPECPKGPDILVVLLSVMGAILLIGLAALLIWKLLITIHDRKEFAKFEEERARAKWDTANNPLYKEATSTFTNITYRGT
Chain of α5β1 integrin (P08648 42-894 limits assumed): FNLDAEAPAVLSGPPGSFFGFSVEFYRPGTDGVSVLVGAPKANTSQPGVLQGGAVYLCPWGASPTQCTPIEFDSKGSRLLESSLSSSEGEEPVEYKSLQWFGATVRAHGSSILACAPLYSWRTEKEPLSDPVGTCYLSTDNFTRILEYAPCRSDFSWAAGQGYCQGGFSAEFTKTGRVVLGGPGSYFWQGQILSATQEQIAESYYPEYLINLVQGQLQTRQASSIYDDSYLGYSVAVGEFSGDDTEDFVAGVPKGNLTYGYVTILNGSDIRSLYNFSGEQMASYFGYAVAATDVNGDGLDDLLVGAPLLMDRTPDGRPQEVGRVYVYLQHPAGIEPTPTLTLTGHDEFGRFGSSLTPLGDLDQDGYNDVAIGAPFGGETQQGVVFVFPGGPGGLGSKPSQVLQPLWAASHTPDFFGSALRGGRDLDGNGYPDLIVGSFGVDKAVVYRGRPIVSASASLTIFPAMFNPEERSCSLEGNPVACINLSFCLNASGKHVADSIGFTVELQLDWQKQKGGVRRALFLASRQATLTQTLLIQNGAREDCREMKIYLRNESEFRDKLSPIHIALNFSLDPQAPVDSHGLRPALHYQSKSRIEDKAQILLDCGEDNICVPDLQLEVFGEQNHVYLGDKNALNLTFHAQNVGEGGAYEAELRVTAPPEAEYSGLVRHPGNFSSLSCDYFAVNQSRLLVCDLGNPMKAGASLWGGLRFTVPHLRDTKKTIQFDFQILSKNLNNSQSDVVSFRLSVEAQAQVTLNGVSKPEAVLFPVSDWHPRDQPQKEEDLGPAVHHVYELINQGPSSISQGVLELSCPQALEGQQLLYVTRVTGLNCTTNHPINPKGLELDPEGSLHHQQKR
Chain of α5β1 integrin (P08648 895-1049 limits assumed): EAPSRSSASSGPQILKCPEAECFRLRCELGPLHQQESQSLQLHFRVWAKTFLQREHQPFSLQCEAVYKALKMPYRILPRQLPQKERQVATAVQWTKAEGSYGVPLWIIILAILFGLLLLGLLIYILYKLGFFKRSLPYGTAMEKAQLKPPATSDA
Chain of α5β1 integrin (P05556 21-798): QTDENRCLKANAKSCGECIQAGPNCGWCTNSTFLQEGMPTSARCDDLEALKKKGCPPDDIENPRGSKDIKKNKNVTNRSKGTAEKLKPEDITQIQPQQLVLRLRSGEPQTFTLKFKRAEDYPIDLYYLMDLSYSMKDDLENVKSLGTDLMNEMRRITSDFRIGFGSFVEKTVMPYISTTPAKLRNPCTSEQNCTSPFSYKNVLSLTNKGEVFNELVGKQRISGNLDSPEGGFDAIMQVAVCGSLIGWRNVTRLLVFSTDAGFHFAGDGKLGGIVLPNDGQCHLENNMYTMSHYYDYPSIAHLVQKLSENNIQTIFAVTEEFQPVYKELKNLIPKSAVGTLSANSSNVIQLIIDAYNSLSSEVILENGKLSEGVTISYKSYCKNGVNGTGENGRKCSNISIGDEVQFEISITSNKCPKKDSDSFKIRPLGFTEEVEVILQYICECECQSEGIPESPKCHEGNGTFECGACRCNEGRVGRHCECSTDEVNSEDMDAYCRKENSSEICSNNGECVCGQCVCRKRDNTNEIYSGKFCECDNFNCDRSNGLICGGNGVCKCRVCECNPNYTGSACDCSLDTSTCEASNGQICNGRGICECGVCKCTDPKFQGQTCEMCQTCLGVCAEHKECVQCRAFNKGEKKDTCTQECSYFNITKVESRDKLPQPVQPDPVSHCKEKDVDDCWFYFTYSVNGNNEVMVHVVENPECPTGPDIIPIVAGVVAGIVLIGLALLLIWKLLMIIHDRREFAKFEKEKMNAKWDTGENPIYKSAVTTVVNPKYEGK
Chain of α2β1 integrin (P17301 30-1181): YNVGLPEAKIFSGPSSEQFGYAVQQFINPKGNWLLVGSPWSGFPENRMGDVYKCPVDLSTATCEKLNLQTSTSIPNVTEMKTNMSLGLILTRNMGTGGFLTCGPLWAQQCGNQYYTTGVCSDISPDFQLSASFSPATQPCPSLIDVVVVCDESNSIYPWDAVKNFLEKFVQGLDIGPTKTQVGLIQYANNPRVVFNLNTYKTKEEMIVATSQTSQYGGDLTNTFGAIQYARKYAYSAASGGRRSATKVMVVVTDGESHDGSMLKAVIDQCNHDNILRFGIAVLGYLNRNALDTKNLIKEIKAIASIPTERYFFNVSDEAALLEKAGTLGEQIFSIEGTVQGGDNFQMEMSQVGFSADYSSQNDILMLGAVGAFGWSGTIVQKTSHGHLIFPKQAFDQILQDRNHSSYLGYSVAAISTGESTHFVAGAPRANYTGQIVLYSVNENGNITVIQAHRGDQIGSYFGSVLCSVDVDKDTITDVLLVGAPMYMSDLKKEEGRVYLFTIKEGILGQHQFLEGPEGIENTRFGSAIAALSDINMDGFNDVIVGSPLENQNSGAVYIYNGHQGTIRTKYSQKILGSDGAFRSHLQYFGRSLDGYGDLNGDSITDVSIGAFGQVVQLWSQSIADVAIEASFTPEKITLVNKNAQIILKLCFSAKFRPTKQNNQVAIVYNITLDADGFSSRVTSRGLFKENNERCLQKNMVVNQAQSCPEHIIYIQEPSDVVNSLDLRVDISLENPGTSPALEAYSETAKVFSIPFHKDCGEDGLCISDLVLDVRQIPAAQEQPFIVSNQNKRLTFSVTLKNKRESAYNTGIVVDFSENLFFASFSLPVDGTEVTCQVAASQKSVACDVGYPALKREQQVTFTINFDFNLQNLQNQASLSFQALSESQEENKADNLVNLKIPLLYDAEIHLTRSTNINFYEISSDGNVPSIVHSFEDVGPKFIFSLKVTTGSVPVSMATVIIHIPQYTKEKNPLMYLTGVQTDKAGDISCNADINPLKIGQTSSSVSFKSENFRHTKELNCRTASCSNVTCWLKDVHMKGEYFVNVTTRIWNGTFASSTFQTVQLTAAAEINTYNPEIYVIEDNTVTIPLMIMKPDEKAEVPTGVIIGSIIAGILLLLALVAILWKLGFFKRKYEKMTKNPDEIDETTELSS
Chain of α2β1 integrin (P05556 21-798): as the sequence (P05556 21-798) above

Row | Substance | inhibition of cell aggregation (WT and MT HEK293 cells) | blocking of adhesion of pLNCX2-VCIP-RGD SW480 cells to monolayer HUVECs [1] | interaction with α2β1 integrin (α2β1 integrin) | interaction with α5β1 integrin (α5β1 integrin) | interaction with αvβ5 integrin (αvβ5 integrin) | dose-dependence of binding to αvβ3 integrin (αvβ3 integrin; FIG. 10C) | interaction with αvβ3 integrin (αvβ3 integrin; immobilized integrin, GST-fusion ligand in solution) | tyrosine phosphorylation of Fak, Cas, Shc and paxillin [2] | tyrosine phosphorylation of Fak, Cas, Shc and paxillin ([2]; listed as VCIP-RGD) | integrins present in pull-down complex (αvβ3 and α5β1 integrins) | adhesion of endothelial cells to coated wells (endothelial cells)
1 | GRADSP [control peptide] | did not | – | – | – | – | – | – | – | – | – | –
2 | GRGDSP (CHAIN a peptide containing RGD sequence) | dose-dependently inhibited cell aggregation | blocked | – | – | – | – | – | – | – | – | –
3 | GST-VCIP-RGD: recombinant GST fusion of 49 amino acid residues (145-194) of VCIP second extracellular loop, wild-type RGD (DIAKVSIGRLRPHFLSVCNPDFSQINCSEGYIQNYRCRGDDSKVQEARKS; cysteine pairing not given here; also: GST fusion) | – | – | did not | interacted | did not | bound to αvβ3 integrin in a dose-dependent manner | interacted | comparable to those induced by fibronectin and vitronectin | induced tyrosine phosphorylation of Fak, Cas, Shc and paxillin at both 30 and 60 min | contained anti-αvβ3 and -α5β1 immunoreactivities | comparable to that observed in wells coated with vitronectin and fibronectin substrates
